Experimental data reported in patent publication US20240132484A1, “BROAD SPECTRUM ANTIVIRAL COMPOUNDS TARGETING THE SKI COMPLEX” (priority 2020, published 2024).
“And” between values parts separate entries of the source, which are not always exact repeats. Equal entries are not always repeated. Where two headings read alike, the source gives them in different places.

Columns and labels:
SARS2 = assay type: cell-based, SARS-CoV-2; conditions: for Percentage Infection Relative to Appropriate DMSO Control with Avg Background Subtraction: Greiner Celigo plates; for Percentage Inhibition Average 1 μM / Screening data (Relative infection to DMSO controls) Average 1 μM: SARS2, 1 μM; for Screening data (Relative infection to DMSO controls) Average 1 μM / Screening data (Relative infection to DMSO controls) Average 5 μM / Screening data (Relative infection to DMSO controls) Average 10 μM / Screening data (Relative infection to DMSO controls) Average 25 μM / Screening data (Relative infection to DMSO controls) Average 50 μM / Average (relative infection to DMSO over the 5 tested concentrations): 100=DMSO control; for Percentage Inhibition Average 5 μM / Screening data (Relative infection to DMSO controls) Average 5 μM: SARS2, 5 μM; for Percentage Inhibition Average 10 μM / Screening data (Relative infection to DMSO controls) Average 10 μM: SARS2, 10 μM; for Percentage Inhibition Average 25 μM / Screening data (Relative infection to DMSO controls) Average 25 μM: SARS2, 25 μM; for Percentage Inhibition Average 50 μM / Screening data (Relative infection to DMSO controls) Average 50 μM: SARS2, 50 μM; for Average (relative infection to DMSO over the 5 tested concentrations): SARS2, average over 1 to 50 uM; for Infection Data, Average, Mean: average of Exp 1-3 (SMW475, SMW477, SMW478)
cells (nuclei count) = conditions: for Relative cell count to DMSO controls, Average 1 μM / Relative cell count to DMSO controls, Average 5 μM / Relative cell count to DMSO controls, Average 10 μM / Relative cell count to DMSO controls, Average 25 μM / Relative cell count to DMSO controls, Average 50 μM: toxicity data, 100=DMSO control; for Toxicity Data, Average, Mean: average of Exp 1-3 (SMW475, SMW477, SMW478); for Relative cell count to DMSO controls, Average (for correlation analysis): average value over the 5 tested concentrations (1 to 50 uM)

## CCN(CC)CCN(Cc1cccs1)C(=O)c1cccs1 [SILCS34]
SARS2; Exp 1 (SMW475), 1 uM
  Percentage Infection Relative to Appropriate DMSO Control with Avg Background Subtraction: 84.46% and 79.06% and 78.77%
SARS2; Exp 1 (SMW475), 5 uM
  Percentage Infection Relative to Appropriate DMSO Control with Avg Background Subtraction: 83.89% and 91.52% and 85.89%
SARS2; Exp 1 (SMW475), 10 uM
  Percentage Infection Relative to Appropriate DMSO Control with Avg Background Subtraction: 120.42% and 77.92% and 112.44%
SARS2; Exp 1 (SMW475), 25 uM
  Percentage Infection Relative to Appropriate DMSO Control with Avg Background Subtraction: 73.54% and 67.42% and 88.43%
SARS2; Exp 1 (SMW475), 50 uM
  Percentage Infection Relative to Appropriate DMSO Control with Avg Background Subtraction: 98.27% and 86.62% and 67.73%
SARS2; Exp 2 (SMW477), 1 uM
  Percentage Infection Relative to Appropriate DMSO Control with Avg Background Subtraction: 117.81% and 129.29% and 121.32%
SARS2; Exp 2 (SMW477), 5 uM
  Percentage Infection Relative to Appropriate DMSO Control with Avg Background Subtraction: 137.43% and 146.89% and 126.80%
SARS2; Exp 2 (SMW477), 10 uM
  Percentage Infection Relative to Appropriate DMSO Control with Avg Background Subtraction: 142.94% and 144.38% and 155.80%
SARS2; Exp 2 (SMW477), 25 uM
  Percentage Infection Relative to Appropriate DMSO Control with Avg Background Subtraction: 109.38% and 111.61% and 103.44%
SARS2; Exp 2 (SMW477), 50 uM
  Percentage Infection Relative to Appropriate DMSO Control with Avg Background Subtraction: 62.30% and 66.46% and 58.63%
SARS2; Exp 3 (SMW478), 1 uM
  Percentage Infection Relative to Appropriate DMSO Control with Avg Background Subtraction: 120.13% and 101.31% and 117.84%
SARS2; Exp 3 (SMW478), 5 uM
  Percentage Infection Relative to Appropriate DMSO Control with Avg Background Subtraction: 108.72% and 96.17% and 137.98%
SARS2; Exp 3 (SMW478), 10 uM
  Percentage Infection Relative to Appropriate DMSO Control with Avg Background Subtraction: 127.49% and 93.45% and 116.79%
SARS2; Exp 3 (SMW478), 25 uM
  Percentage Infection Relative to Appropriate DMSO Control with Avg Background Subtraction: 164.75% and 165.91% and 139.33%
SARS2; Exp 3 (SMW478), 50 uM
  Percentage Infection Relative to Appropriate DMSO Control with Avg Background Subtraction: 145.01% and 171.02% and 138.34%
SARS2
  Percentage Inhibition Average 1 μM: −5.55%
  Screening data (Relative infection to DMSO controls) Average 1 μM: 105.55
  Percentage Inhibition Average 5 μM: −12.81%
  Screening data (Relative infection to DMSO controls) Average 5 μM: 112.81
  Percentage Inhibition Average 10 μM: −21.29%
  Screening data (Relative infection to DMSO controls) Average 10 μM: 121.29
  Percentage Inhibition Average 25 μM: −13.76%
  Screening data (Relative infection to DMSO controls) Average 25 μM: 113.76
  Percentage Inhibition Average 50 μM: 0.62%
  Screening data (Relative infection to DMSO controls) Average 50 μM: 99.38
  Average (relative infection to DMSO over the 5 tested concentrations): 110.56
SARS2; n 9, 1 uM
  Infection Data, Average, Mean: 105.55%
SARS2; n 9, 5 uM
  Infection Data, Average, Mean: 112.81%
SARS2; n 9, 10 uM
  Infection Data, Average, Mean: 121.29%
SARS2; n 9, 25 uM
  Infection Data, Average, Mean: 113.76%
SARS2; n 9, 50 uM
  Infection Data, Average, Mean: 99.38%
Cells (nuclei count)
  Relative cell count to DMSO controls, Average 1 μM: 102.47
  Relative cell count to DMSO controls, Average 5 μM: 99.62
  Relative cell count to DMSO controls, Average 10 μM: 91
  Relative cell count to DMSO controls, Average 25 μM: 89.42
  Relative cell count to DMSO controls, Average 50 μM: 67.85
  Relative cell count to DMSO controls, Average (for correlation analysis): 90.07
Cells (nuclei count); n 9, 1 uM
  Toxicity Data, Average, Mean: 102.47%
Cells (nuclei count); n 9, 5 uM
  Toxicity Data, Average, Mean: 99.62%
Cells (nuclei count); n 9, 10 uM
  Toxicity Data, Average, Mean: 91.00%
Cells (nuclei count); n 9, 25 uM
  Toxicity Data, Average, Mean: 89.42%
Cells (nuclei count); n 9, 50 uM
  Toxicity Data, Average, Mean: 67.85%

## CCN(CC)CCN(Cc1ccccn1)Cc1ccc(C)o1 [SILCS36]
SARS2; Exp 1 (SMW475), 1 uM
  Percentage Infection Relative to Appropriate DMSO Control with Avg Background Subtraction: 112.32% and 102.95% and 77.60%
SARS2; Exp 1 (SMW475), 5 uM
  Percentage Infection Relative to Appropriate DMSO Control with Avg Background Subtraction: 103.78% and 96.97% and 70.88%
SARS2; Exp 1 (SMW475), 10 uM
  Percentage Infection Relative to Appropriate DMSO Control with Avg Background Subtraction: 100.05% and 88.33% and 67.06%
SARS2; Exp 1 (SMW475), 25 uM
  Percentage Infection Relative to Appropriate DMSO Control with Avg Background Subtraction: 42.48% and 40.16% and 33.52%
SARS2; Exp 2 (SMW477), 1 uM
  Percentage Infection Relative to Appropriate DMSO Control with Avg Background Subtraction: 136.49% and 133.25% and 131.77%
SARS2; Exp 2 (SMW477), 5 uM
  Percentage Infection Relative to Appropriate DMSO Control with Avg Background Subtraction: 140.43% and 143.68% and 122.53%
SARS2; Exp 2 (SMW477), 10 uM
  Percentage Infection Relative to Appropriate DMSO Control with Avg Background Subtraction: 111.26% and 112.57% and 100.88%
SARS2; Exp 2 (SMW477), 25 uM
  Percentage Infection Relative to Appropriate DMSO Control with Avg Background Subtraction: 70.58% and 67.21% and 40.18%
SARS2; Exp 3 (SMW478), 1 uM
  Percentage Infection Relative to Appropriate DMSO Control with Avg Background Subtraction: 116.69% and 121.41% and 101.10%
SARS2; Exp 3 (SMW478), 5 uM
  Percentage Infection Relative to Appropriate DMSO Control with Avg Background Subtraction: 103.27% and 118.27% and 106.75%
SARS2; Exp 3 (SMW478), 10 uM
  Percentage Infection Relative to Appropriate DMSO Control with Avg Background Subtraction: 99.80% and 128.16% and 117.51%
SARS2
  Percentage Inhibition Average 1 μM: −14.84%
  Screening data (Relative infection to DMSO controls) Average 1 μM: 114.84
  Percentage Inhibition Average 5 μM: −11.84%
  Screening data (Relative infection to DMSO controls) Average 5 μM: 111.84
  Percentage Inhibition Average 10 μM: −2.85%
  Screening data (Relative infection to DMSO controls) Average 10 μM: 102.85
  Percentage Inhibition Average 25 μM: 42.56%
  Screening data (Relative infection to DMSO controls) Average 25 μM: 57.44
  Percentage Inhibition Average 50 μM: 72.63%
  Screening data (Relative infection to DMSO controls) Average 50 μM: 27.37
  Average (relative infection to DMSO over the 5 tested concentrations): 82.87
SARS2; n 9, 1 uM
  Infection Data, Average, Mean: 114.84%
SARS2; n 9, 5 uM
  Infection Data, Average, Mean: 111.84%
SARS2; n 9, 10 uM
  Infection Data, Average, Mean: 102.85%
SARS2; n 9, 25 uM
  Infection Data, Average, Mean: 57.44%
SARS2; n 9, 50 uM
  Infection Data, Average, Mean: 27.37%
Cells (nuclei count)
  Relative cell count to DMSO controls, Average 1 μM: 87.6
  Relative cell count to DMSO controls, Average 5 μM: 84.91
  Relative cell count to DMSO controls, Average 10 μM: 88.15
  Relative cell count to DMSO controls, Average 25 μM: 91.83
  Relative cell count to DMSO controls, Average 50 μM: 63.21
  Relative cell count to DMSO controls, Average (for correlation analysis): 83.14
Cells (nuclei count); n 9, 1 uM
  Toxicity Data, Average, Mean: 87.60%
Cells (nuclei count); n 9, 5 uM
  Toxicity Data, Average, Mean: 84.91%
Cells (nuclei count); n 9, 10 uM
  Toxicity Data, Average, Mean: 88.15%
Cells (nuclei count); n 9, 25 uM
  Toxicity Data, Average, Mean: 91.83%
Cells (nuclei count); n 9, 50 uM
  Toxicity Data, Average, Mean: 63.21%
